The values that follow come from US8202899B2, “Pyrazole urea derivatives used as kinase inhibitors” (Array BioPharma Inc., priority 2007, dated 2012).

A short description of series [1]: Solubility Assay (modified shake flask method). It counts as physicochemical. The protocol: The solubility of each of the compounds of Examples 1 and 2 were tested at pHs 1.2, 6.5 and 7.4 using a modified shake flask method. The compounds were received as 1.6 mg/mL stock solutions in DMSO. Aqueous unknowns were prepared at final concentrations of 16 μg/mL and 32 μg/mL, with each aqueous unknown containing 1% or 2% DMSO, respectively. The aqueous samples were quantitated against organic standards prepared in MeOH (with 1% DMSO in the high standard (16 μg/mL). UV 220 nm and UV 254 nm area were used for quantitation.

Series [2] has as its system TNF-α production in whole blood treated with LPS. Put plainly: Human Whole Blood TNF-α Assay. It counts as cell-based. The note with it: inhibition of LPS-induced TNF-α production, ELISA, read-out: apparent IC50. The protocol: In a functional cell assay, the compound of Examples 1 and 2 were tested for their ability to inhibit TNF-α production in whole blood treated with bacterial lipopolysaccharide (LPS) to induce cytokine production (as detected by ELISA).
Compound test solutions were made by making 3.33 fold serial dilutions in DMSO, which dilutions were then diluted to 5× stocks by diluting with MEM, 2% heat inactivated fetal bovine serum (“MS”), 20 mM HEPES, 2 mM L-glutamine, and 1% penicillin/streptomycin
Whole blood was collected from human volunteers using sodium heparin Vacutainer™ tubes and processed within two hours of collection. Blood was diluted 3-fold with Whole Blood (WB) medium (RPMI 1640, 2% heat inactivated fetal bovine serum, 20 mM HEPES, 2 mM L-glutamine, and 1% penicillin/streptomycin). 100 μL of diluted blood was added to each well of a 96-well cell culture plate, followed by 30 μL of a compound test solution.
After a one-hour incubation at 37° C./5% CO2, 20 μL of 7.5 ng/mL lipopolysaccharide (E. coli K-235, Sigma L2018) was added to each well. The cells were incubated again at 37° C./5% CO2 for 16-20 hours. […]
Briefly, test compound supernatants were added to wells of a 96-well plate that were coated with antibody to human TNF-α (R&D Systems, MAB210) and incubated at room temperature for at least one hour. […] The absorbance at 405 nm was then read.

The next series addresses activated p38α enzyme (Homo sapiens, UniProt Q16539). The series can be described thus: p38 Biochemical Assay. Here is the method: p38 activity was assayed at room temperature in a 100 μL reaction containing 5 nM activated p38α enzyme and 1 μM ATF-2 (Activating Transcription Factor 2 fusion protein) as the substrate in […] HEPES (pH 7.4), 100 μM Vanadate, 1 mM :DTT, 10 mM MgCl2 and 10 μM [γ-^33P]-ATP (˜0.1 μCi P^33/reaction). The reaction was terminated after 30-40 minutes by adding 25% TCA, allowed to stand for 5 minutes, and then transferred directly to a GF-B membrane filter plate. The filter was washed twice for 30 seconds with 0.5% phosphoric acid using a Tomtec Mach III Automated Harvestor. After washing, the vacuum was continued for 30 seconds to dry the filter. Approximately 30 μL of scintillant was added per well to the filter plate and then read in a Liquid Scintillation Counter (Packard TopCount HTS).

Structures are written as SMILES. In brackets after ≈: the same amount, converted by molar mass. Like-named read-outs stand apart in the source and are kept apart here.

Sequence of activated p38α enzyme (Q16539 whole entry, the tested form may be a part): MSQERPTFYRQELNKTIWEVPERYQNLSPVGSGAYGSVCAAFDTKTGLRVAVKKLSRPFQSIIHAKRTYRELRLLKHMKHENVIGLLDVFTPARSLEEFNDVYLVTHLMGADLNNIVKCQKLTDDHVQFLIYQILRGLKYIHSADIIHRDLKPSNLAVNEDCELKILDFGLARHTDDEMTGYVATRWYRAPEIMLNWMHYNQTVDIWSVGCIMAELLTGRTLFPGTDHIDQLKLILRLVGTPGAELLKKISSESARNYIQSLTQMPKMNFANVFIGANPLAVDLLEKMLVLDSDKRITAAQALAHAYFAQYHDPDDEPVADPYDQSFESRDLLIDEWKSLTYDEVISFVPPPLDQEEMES

For the compound `Cc1ccc(-n2nc(C(C)(C)CO)cc2NC(=O)NCc2cc(F)ccc2Oc2ccc3c(cnn3CCO)c2)cc1` [Example 1], the solubility – broadly, how much of the substance goes into solution per volume – in series [1] (aqueous sample containing 1% DMSO, aqueous buffer, kinetic from dmso stock, pH 6.5, starting conc. 16 μg/mL (with 1% DMSO), read-out: Solubility pH 6.5) is 0.75 µg/mL (≈ 1.31 µM); in series [1] (aqueous sample containing 1% DMSO, aqueous buffer, kinetic from dmso stock, pH 7.4, starting conc. 16 μg/mL (with 1% DMSO), read-out: Solubility pH 7.4) it was 0.7 µg/mL (≈ 1.22 µM); in series [1] (aqueous sample containing 1% DMSO, simulated gastric fluid, kinetic from dmso stock, pH 1.2, starting conc. 16 μg/mL (with 1% DMSO), read-out: Solubility pH 1.2), 7.9 µg/mL (≈ 13.8 µM); in series [1] (aqueous sample containing 2% DMSO, aqueous buffer, kinetic from dmso stock, pH 6.5, starting conc. 32 μg/mL (with 2% DMSO), read-out: Solubility pH 6.5), 1.8 µg/mL (≈ 3.14 µM); in series [1] (aqueous sample containing 2% DMSO, aqueous buffer, kinetic from dmso stock, pH 7.4, starting conc. 32 μg/mL (with 2% DMSO), read-out: Solubility pH 7.4) it was 1.7 µg/mL (≈ 2.97 µM); in series [1] (aqueous sample containing 2% DMSO, simulated gastric fluid, kinetic from dmso stock, pH 1.2, starting conc. 32 μg/mL (with 2% DMSO), read-out: Solubility pH 1.2), 18.8 µg/mL (≈ 32.8 µM). In addition, the “aqueous solubility compared to the compound of Example 138 of WO 2004/078116” value in series [1] (at pH 6.5 and 7.4) was “improved aqueous solubility”. Moreover, in series [2], the IC50 – broadly, the concentration needed to halve the response being measured – worked out at 447 nM.

As to `CC(C)(C)c1cc(NC(=O)NCc2cc(F)ccc2Oc2ccc3c(cnn3CCO)c2)n(-c2ccc(CO)cc2)n1` [Example 2, 1-(3-tert-butyl-1-(4-(hydroxymethyl)phenyl)-1H-pyrazol-5-yl)-3-(5-fluoro-2-(1-(2-hydroxymethyl)-1H-indazol-5-yloxy)benzyl)urea], the “p38 inhibition potency compared to the compound of Example 138 of WO 2004/078116” value on activated p38α enzyme is reported as “significantly more potent inhibitor of p38”. Also, in series [2], the IC50 worked out at 1.9 nM.

For the compound `Cn1nc(C(C)(C)C)cc1NC(=O)NCc1cc(F)ccc1Oc1ccc2c(cnn2CC(C)(C)O)c1` [Example 138, reference compound], the solubility in series [1] (aqueous solution (pH 7.4), aqueous buffer, pH 7.4, starting conc. 1000 μg/mL, read-out: Solubility pH 7.4) is 0.045 µg/mL (≈ 0.0885 µM).
